# Laboratory results taken from publication PMC3706088 (Journal of medicinal chemistry, 2013).
# “Also recorded” adds a separate entry of the source. Read-outs that look alike come from different tables or passages of the source.
# Assays:
# [1] = system: Female Sprague-Dawley rats; assay: Hypothermia: body temperature in rats over 6 h after injection; conditions: rat, up to a dose of 10.0 mg/kg s.c.
# [2] = system: Female Sprague-Dawley rats; assay: Antinociception: tail-flick procedure in rats over 6 h after injection; conditions: rat, up to doses of 10.0 mg/kg s.c.
# [3] = target: CB1-E cannabinoid receptors (Homo sapiens, UniProt P21554); assay: β-arrestin2 translocation assay, U2OS cells expressing CB1-E and β-arrestin2-GFP; conditions: for β-arrestin2 translocation efficacy, 95% confidence interval: normalized to the response of WIN55212-2 set to 1, N = 3; for in vitro functional characterization, CB1 profile: conclusion of the in vitro functional assays
# rCB1 [4] = target: T1, rCB1 (Rattus norvegicus, UniProt P20272); format: cell-based; conditions: for functional profile in cAMP assay: CB1
# mCB2 = mCB2 (Mus musculus, UniProt P47936); assay: Radioligand competition binding with [3H]CP-55,940, mouse spleen membranes; conditions: from Ki values
# hCB2 = hCB2 (Homo sapiens, UniProt P34972); format: binding; conditions: from Ki values
# rCB1 [5] = target: T1, rCB1; assay: Radioligand competition binding with [3H]CP-55,940, rat brain membranes; conditions: relative to 11; across rCB1, mCB2 and hCB2
# Chain of CB1-E cannabinoid receptors (P21554 1-415): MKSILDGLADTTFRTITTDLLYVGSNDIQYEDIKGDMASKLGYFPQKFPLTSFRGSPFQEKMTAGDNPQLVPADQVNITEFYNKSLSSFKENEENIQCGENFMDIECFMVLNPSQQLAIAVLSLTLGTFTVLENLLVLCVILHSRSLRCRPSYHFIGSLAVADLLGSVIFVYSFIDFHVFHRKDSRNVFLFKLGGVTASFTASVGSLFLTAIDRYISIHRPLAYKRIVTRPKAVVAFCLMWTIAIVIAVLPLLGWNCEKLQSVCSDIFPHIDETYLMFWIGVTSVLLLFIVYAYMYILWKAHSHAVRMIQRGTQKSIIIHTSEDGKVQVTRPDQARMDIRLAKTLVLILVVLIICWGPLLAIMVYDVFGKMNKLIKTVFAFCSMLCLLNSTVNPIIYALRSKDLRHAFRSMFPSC
# Chain of CB1-E cannabinoid receptors (P25103 309-407 partner): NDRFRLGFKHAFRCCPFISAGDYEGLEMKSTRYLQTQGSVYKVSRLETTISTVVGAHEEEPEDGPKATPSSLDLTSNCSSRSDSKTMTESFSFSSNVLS
# T1 sequence (P20272 whole entry): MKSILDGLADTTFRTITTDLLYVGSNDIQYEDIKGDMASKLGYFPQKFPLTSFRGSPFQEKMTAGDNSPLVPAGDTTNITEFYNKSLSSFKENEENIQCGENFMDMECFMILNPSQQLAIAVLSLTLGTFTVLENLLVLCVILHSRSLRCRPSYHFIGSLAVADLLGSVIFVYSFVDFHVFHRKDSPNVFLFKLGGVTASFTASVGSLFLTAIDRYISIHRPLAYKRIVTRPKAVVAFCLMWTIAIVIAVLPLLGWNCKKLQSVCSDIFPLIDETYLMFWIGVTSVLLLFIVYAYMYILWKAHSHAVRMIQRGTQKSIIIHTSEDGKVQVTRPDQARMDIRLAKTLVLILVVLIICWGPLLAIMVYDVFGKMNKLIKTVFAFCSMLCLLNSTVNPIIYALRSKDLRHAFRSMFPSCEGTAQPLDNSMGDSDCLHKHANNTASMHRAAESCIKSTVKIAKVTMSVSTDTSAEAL
# Chain of mCB2 (P47936 whole entry): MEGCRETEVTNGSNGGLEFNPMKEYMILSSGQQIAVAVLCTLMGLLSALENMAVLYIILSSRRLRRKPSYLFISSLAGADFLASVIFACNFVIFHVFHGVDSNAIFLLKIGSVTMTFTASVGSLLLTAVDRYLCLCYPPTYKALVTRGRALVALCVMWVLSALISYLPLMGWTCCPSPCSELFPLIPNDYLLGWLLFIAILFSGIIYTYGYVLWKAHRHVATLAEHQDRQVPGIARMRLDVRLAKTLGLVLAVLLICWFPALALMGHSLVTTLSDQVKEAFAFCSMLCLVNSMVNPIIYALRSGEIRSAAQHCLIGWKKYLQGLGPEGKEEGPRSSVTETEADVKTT
# Chain of hCB2 (P34972 whole entry): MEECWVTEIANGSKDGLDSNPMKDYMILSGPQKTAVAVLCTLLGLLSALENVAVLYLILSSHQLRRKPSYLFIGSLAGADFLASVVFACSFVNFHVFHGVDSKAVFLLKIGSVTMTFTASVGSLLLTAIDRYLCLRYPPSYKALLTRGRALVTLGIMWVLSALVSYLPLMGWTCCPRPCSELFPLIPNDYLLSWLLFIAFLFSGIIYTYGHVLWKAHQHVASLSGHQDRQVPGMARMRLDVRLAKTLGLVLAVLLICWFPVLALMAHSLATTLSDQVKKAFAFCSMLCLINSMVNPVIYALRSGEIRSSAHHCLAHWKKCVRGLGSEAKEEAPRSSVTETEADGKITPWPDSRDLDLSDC
structure (smiles),measurement,setting,value
CC1=CC[C@@H]2[C@@H](C1)c1c(O)cc(C34CC5CC(CC(C5)C3)C4)cc1OC2(C)C [Compound 1],hypothermic effects,[1],did not have hypothermic effects
same,antinociceptive effects (tail-flick),[2],neither had significant antinociceptive effects
same,"β-arrestin2 translocation efficacy, 95% confidence interval",[3],0.43–0.81
"CC1(C)Oc2cc(C34CC5CC(CC(C5)C3)C4)cc(O)c2[C@@H]2C[C@H](CO)CC[C@H]21 [Compound 11, (6aR,9R,10aR)-3-(Adamantan-1-yl)-9-(hydroxymethyl)-6,6-dimethyl-6a,7,8,9,10,10a-hexahydro-6H-benzo[c]chromen-1-ol]",EC50,rCB1 [4],1.29 nM
same,functional profile in cAMP assay,rCB1 [4],potent CB1 agonist
same,functional profile in cAMP assay,rCB1 [4]; listed as AM4054,agonist
same,"in vitro functional characterization, CB1 profile",[3],high efficacy CB1 agonists
same,"β-arrestin2 translocation efficacy, 95% confidence interval",[3],0.65–0.92
"CC1(C)Oc2cc(C34CC5CC(CC(C5)C3)C4)cc(O)c2[C@@H]2C[C@H](CCO)CC[C@H]21 [Compound 16, (6aR,9R,10aR)-3-(Adamantan-1-yl)-9-(2-hydroxyethyl)-6,6-dimethyl-6a,7,8,9,10,10a-hexahydro-6H-benzo[c]chromen-1-ol]",CB1 selectivity over mCB2,mCB2,~ 4 fold
same,CB1 selectivity over hCB2,hCB2,~ 4 fold
"CC1(C)Oc2cc(C34CC5CC(CC(C5)C3)C4)cc(O)c2[C@@H]2C[C@@H](CO)CC[C@H]21 [Compound 17, (6aR,9S,10aR)-3-(Adamantan-1-yl)-9-(hydroxymethyl)-6,6-dimethyl-6a,7,8,9,10,10a-hexahydro-6H-benzo[c]chromen-1-ol]",lower affinities than β-hydroxymethyl isomer 11,rCB1 [5],6- to 11 fold
"CC1(C)Oc2cc(C34CC5CC(CC(C5)C3)C4)cc(O)c2[C@@H]2CC(CO)=CC[C@H]21 [Compound 22, (6aR,10aR)-3-(Adamantan-1-yl)-9-(hydroxymethyl)-6,6-dimethyl-6a, 7, 10, 10a-tetrahydro-6H-benzo[c]chromen-1-ol]","in vitro functional characterization, CB1 profile",[3],high efficacy CB1 agonists
same,"β-arrestin2 translocation efficacy, 95% confidence interval",[3],0.54–0.80
CC1(C)Oc2cc(C34CC5CC(CC(C5)C3)C4)cc(O)c2-c2cc(CO)ccc21 [Compound 24],CB1 selectivity over mCB2,mCB2,15 fold
same,EC50,rCB1 [4],7.97 nM
same,functional profile in cAMP assay,rCB1 [4],CB1 partial agonist; also recorded: partial CB1 agonist
same,functional profile in cAMP assay,rCB1 [4]; listed as AM4089,partial agonist
same,antinociceptive effects (tail-flick),[2],neither had significant antinociceptive effects
same,"β-arrestin2 translocation efficacy, 95% confidence interval",[3],0.68–0.94
